According to patent US9376425B2, “Heterocyclic compounds as MDM2 inhibitors for the treatment of cancer” (AMGEN INC., priority 2011, dated 2016):

Target: T1, human MDM2 (GST-hMDM2 aa 1-188), interaction with biotinylated-p53 (aa 1-83) (Homo sapiens, UniProt Q00987)
T1 construct: Amino acid residues 1-188 of human MDM2 were expressed; made in house; host or cells: Escherichia coli
Experiment: Homogenous Time-Resolved Fluorescence Assay (HTRF1 assay), inhibition of HDM2-p53 interaction
Format: binding
Conditions: 2.5 nM GST-hMDM2, 5 nM biotinylated-p53, 200 mM KF
Procedure, shortened: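 GST-hMDM2 preincubated 20 min at room temperature with serially diluted compound, then biotinylated p53 (aa 1-83, AviTag-TrxA-6xHis fusion) added for 60 min. SA-XLent/anti-GST cryptate detection equilibrated >4 h; final DMSO 2%. Time-resolved fluorescence read; percent inhibition relative to nutlin-3.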

T1 sequence (Q00987 1-188): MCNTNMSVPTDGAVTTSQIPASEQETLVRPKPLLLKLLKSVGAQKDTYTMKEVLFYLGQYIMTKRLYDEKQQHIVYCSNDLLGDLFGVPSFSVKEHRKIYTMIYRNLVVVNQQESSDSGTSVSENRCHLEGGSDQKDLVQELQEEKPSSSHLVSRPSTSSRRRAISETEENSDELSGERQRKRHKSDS

Row | Structure (SMILES) | IC50 [nM]
1 | O=C(O)C[C@H]1O[C@H](c2cccc(Cl)c2)[C@@H](c2ccc(Cl)cc2)N(C2CCC2)C1=O [Example 13, 2-((2R,5R,6R)-6-(3-Chlorophenyl)-5-(4-chlorophenyl)-4-cyclobutyl-3-oxomorpholin-2-yl)acetic acid] | 700
2 | CC[C@@H](C(=O)OC(C)(C)C)N1C(=O)[C@H](CC(=O)O)O[C@H](c2cccc(Cl)c2)[C@H]1c1ccc(Cl)cc1 (single isomer, unassigned) [Example 31] | 100
3 | COc1cncc([C@H]2OC(CC(=O)O)C(=O)N(CC3CC3)[C@@H]2c2ccc(Cl)cc2)c1 (single isomer, unassigned) [Example 92] | 19500
4 | O=C(O)CC1O[C@H](c2ccc(F)c(Cl)c2)[C@@H](c2ccc(Cl)cc2)N(CC2CC2)C1=O (single isomer, unassigned) [Example 94] | 600
5 | O=C(O)C[C@@H]1O[C@H](c2cccc(Cl)c2)[C@@H](c2ccc(Cl)cc2)N(C2CCC2)C1=O [Example 12, 2-((2S,5R,6R)-6-(3-Chlorophenyl)-5-(4-chlorophenyl)-4-cyclobutyl-3-oxomorpholin-2-yl)acetic acid] | 900
6 | COc1ccc([C@@H]2[C@@H](c3cccc(Cl)c3)OC(CC(=O)O)C(=O)N2CC2CC2)cc1 (single isomer, unassigned) [Example 76] | 1400
7 | CC[C@@H](C(=O)OC(C)(C)C)N1C(=O)[C@@H](CC(=O)O)O[C@H](c2cccc(Cl)c2)[C@H]1c1ccc(Cl)cc1 (single isomer, unassigned) [Example 32] | 100
8 | O=C(O)C[C@@H]1O[C@H](c2cccc(Cl)c2)[C@@H](c2ccc(Cl)cc2)N(CCC(F)(F)F)C1=O [Example 11, 2-((2S,5R,6R)-6-(3-Chlorophenyl)-5-(4-chlorophenyl)-3-oxo-4-(3,3,3-trifluoropropyl)morpholin-2-yl)acetic acid] | 600
9 | O=C(O)CC1O[C@H](c2cncc(Cl)c2)[C@@H](c2ccc(Cl)cc2)N(CC2CC2)C1=O (single isomer, unassigned) [Example 88] | 2100
10 | O=C(O)CC1O[C@H](c2cccc(OC(F)(F)F)c2)[C@@H](c2ccc(Cl)cc2)N(CC2CC2)C1=O (single isomer, unassigned) [Example 95] | 33500
11 | O=C(O)CC1O[C@H](c2cccc(F)c2)[C@@H](c2ccc(Cl)cc2)N(CC2CC2)C1=O (single isomer, unassigned) [Example 86] | 800
12 | O=C(O)CC1O[C@H](c2cc(Cl)ccc2F)[C@@H](c2ccc(Cl)cc2)N(CC2CC2)C1=O (single isomer, unassigned) [Example 100] | 1100
13 | O=C(O)CC1O[C@H](c2cccc(Cl)c2)[C@@H](c2ccc(C(F)(F)F)nc2)N(CC2CC2)C1=O (single isomer, unassigned) [Example 81] | 15700
14 | O=C(O)C[C@H]1O[C@H](c2cccc(Cl)c2)[C@@H](c2ccc(Cl)cc2)N(C2CCCC2)C1=O [Example 15, 2-((2R,5R,6R)-6-(3-chlorophenyl)-5-(4-chlorophenyl)-4-cyclopentyl-3-oxomorpholin-2-yl)acetic acid] | 300
15 | O=C(O)C[C@@H]1O[C@H](c2cccc(Cl)c2)[C@@H](c2ccc(Cl)cc2)N(C2CCCCC2)C1=O [Example 16, 2-((2S,5R,6R)-6-(3-Chlorophenyl)-5-(4-chlorophenyl)-4-cyclohexyl-3-oxomorpholin-2-yl)acetic acid] | 300
16 | O=C(O)C[C@@H]1O[C@H](c2cccc(Cl)c2)[C@@H](c2ccc(Cl)cn2)N(CC2CC2)C1=O (single isomer, unassigned) [Example 7] | 1100
17 | O=C(O)C[C@@H]1O[C@H](c2cccc(Cl)c2)[C@@H](c2ccc(Cl)cc2)N(C2CCCC2)C1=O [Example 14, 2-((2S,5R,6R)-6-(3-Chlorophenyl)-5-(4-chlorophenyl)-4-cyclopentyl-3-oxomorpholin-2-yl)acetic acid] | 300
18 | Cc1ccc([C@@H]2[C@@H](c3cccc(Cl)c3)O[C@@H](CC(=O)O)C(=O)N2CC2CC2)cc1 [Example 60, 2-((2S,5R,6R)-6-(3-Chlorophenyl)-4-(cyclopropylmethyl)-3-oxo-5-(p-tolyl)morpholin-2-yl)acetic acid] | 700
19 | CCN1C(=O)[C@H](CC(=O)O)O[C@H](c2cccc(Cl)c2)[C@H]1c1ccc(Cl)cc1 [Example 45, 2-((2S,5R,6R)-6-(3-Chlorophenyl)-5-(4-chlorophenyl)-4-ethyl-3-oxomorpholin-2-yl)acetic acid] | 800
20 | C[C@H](c1ccccc1)N1C(=O)[C@@H](CC(=O)O)O[C@H](c2cccc(Cl)c2)[C@H]1c1ccc(Cl)cc1 [Example 24, 2-((2R,5R,6R)-6-(3-Chlorophenyl)-5-(4-chlorophenyl)-3-oxo-4-((R)-1-phenylethyl)morpholin-2-yl)acetic acid] | 1000
21 | N#Cc1cc(F)cc([C@H]2OC(CC(=O)O)C(=O)N(CC3CC3)[C@@H]2c2ccc(Cl)cc2)c1 (single isomer, unassigned) [Example 98] | 1800
22 | CS(=O)(=O)c1cc(Cl)cc([C@H]2O[C@H](CC(=O)O)C(=O)N(CC3CC3)[C@@H]2c2ccc(Cl)cc2)c1 (single isomer, unassigned) [Example 110] | 3700
23 | C[C@@H](c1ccccc1)N1C(=O)[C@H](CC(=O)O)O[C@H](c2cccc(Cl)c2)[C@H]1c1ccc(Cl)cc1 [Example 27, 2-((2S,5R,6R)-6-(3-Chlorophenyl)-5-(4-chlorophenyl)-3-oxo-4-((S)-1-phenylethyl)morpholin-2-yl)acetic acid] | 600
